{"source": "patent EP1285971B1", "about": "“Methods for the phenotypic and genotypic assessment of the drug sensitivity of HIV integrase variants” (Tibotec Pharmaceuticals Ltd., priority 2001, dated 2003)", "key": {"pHXB2D control": {"system": "pHXB2D control", "test": "Antiviral experiment with control clone, transfected directly without recombination", "assay_type": "cell-based, HIV", "settings": "AVE 6, pHXB2D control, no recombination", "method": "Recombinant virus was produced by co-transfection by electroporation of the SmaI-linearized IN-deletion construct and the integrase amplicon into MT4 cells or MT4 cells equipped with an LTR driven reporter gene construct. Production of recombinant virus was evaluated by scoring the cytopathogenic effect (CPE) that is induced by HIV-infection of MT4 cells or by the LTR-driven reporter signal induced by HIV infection in MT4 reporter cells. Green fluorescent protein was used as the reporter signal. Viruses are harvested and titrated at maximum CPE. For recombination the deletion construct pSV40HXB2D-ΔIN was used. Recombination experiments were performed with amplicon from wildtype HIV IIIB and NL4.3, and patient sample 146514 generated by both primer sets. For each recombination 2 µg amplicon was co-transfected with 10 µg SmaI-digested pSV40HXB2D-ΔIN by electroporation into MT4-LTR-EGFP cells. Virus stocks were titrated and tested in an antiviral experiment on a reference panel including nucleoside reverse transcriptase inhibitors (NRTI), non- nucleoside reverse transcriptase inhibitors (NNRTI), protein inhibitor (PR), entry and integrase (IN) inhibitors (Table 2). Recombination was checked by nucleic acid sequence analysis using protocols known to the person skilled in the art. Sequencing primers which can be used are In_seq1F (SEQ ID NO 17), In_seq2F (SEQ ID NO 18), In_seq3F (SEQ ID NO 19), IN_seq1R (SEQ ID NO 20), IN_seq2R (SEQ ID NO 21), and IN_seq3R (SEQ ID NO 22). The recombinant virus was evaluated in an anti-viral assay with a panel of reference compounds including nucleoside RT inhibitors (NRTI) Zidovudine (AZT) Lamivudine (3TC), Didanosine (DDI), non-nucleoside RT inhibitors (NNRTI) Nevirapine (NVP), 4-[[6-amino-5-bromo-2-[(4-cyanophenyl)amino]-4-pyrimidinyl]oxy]-3,5-dimethyl-benzonitrile also referred to as compound 1, 4-[[6-amino-5-bromo-2-[(4-cyanophenyl)amino]-4-pyrimidinyl]oxy]-3,5-dimethyl-Benzonitrile, also referred to as compound 2 protease inhibitors (PR) Saquinavir (SQV), Amprenavir (APV), Indinavir (IDV), [[…]-3-[[(4-aminophenyl)sulfonyl](2-methylpropyl)amino]-2-hydroxy-1-(phenylmethyl)-propyl]-, (3R,3aS,6aR)-hexahydrofuro[2,3-b]furan-3-yl ester carbamic acid also referred to as compound 3, entry-inhibitors (Entry)(AMD3100, DS5000, ATA), and integrase inhibitor (IN) 2-(1-methylethyloxy)-α,γ dioxo-5-(phenylmethyl)-benzenebutanoic acid also referred to as compound 4. […] AVE means antiviral experiment. Type means the type of inhibitor investigated. The fold change is the fold change in EC50. WT III B means that a portion of the wild type IIIB strain has been amplified and used in the antiviral experiment, including transfection and generation of recombinant virus. NL 4-3 means the integrase gene of this laboratory strain has been amplified and subsequently used for the antiviral experiment. […] No recombination has been effected using this HIV clone. pHXB2D has been used directly for transfection and antiviral experiment. Primer set 3 consist of outer primers 5'EGINT3 (SEQ ID NO 4) and 3'EGINT10 (SEQ ID NO 11), and inner primers 5'EGINT4 (SEQ ID NO 5) and 3'EGINT6 (SEQ ID NO 7). Primer set 4 consist of outer primers 5'EGINT3 (SEQ ID NO 4) and 3'EGINT10 (SEQ ID NO 11), and inner primers 5'EGINT5 […] and 3'EGINT6 (SEQ ID NO 7). Other suitable integrase inhibitors include L-731,988, diketo-acids and S-1360."}, "patient_146514": {"system": "patient_146514", "test": "microbe, parasite or virus in culture", "assay_type": "cell-based, HIV", "settings": "AVE 2, patient_146514, primer set 3", "method": "(§1) The integrase encoding sequence was amplified from either wildtype HIV-1 (IIIB) or NL4.3 virus, or HXB2D site-directed mutant viruses containing mutations in integrase (such as T66I, S153Y, M154I, or combinations thereof) (Hazuda et al., Science 2000, 287, 646-650), or patient samples. Starting from RNA, extracted from virus supernatant or plasma using the QIAamp® viral RNA extraction kit (Qiagen), cDNA was synthesized by reverse transcription (Expand TM reverse transcriptase, 30 min at 42°C) with the primer 3'EGINT10 (SEQ ID NO 11), followed by a nested PCR. The outer PCR was performed with the primers 5'EGINT1 (SEQ ID NO 1) and 3'EGINT10 (SEQ ID NO 11) (ΔR-IN-vif construct) or 5'EGINT3 (SEQ ID NO 4) and 3'EGINT10 (SEQ ID NO 11) (ΔIN construct) (Expand™ High Fidelity PCR system), and 5 µl of the outer product was used for an inner PCR with primers 5'EGINT2 (SEQ ID NO 3) and 3'EGINT11 (SEQ ID NO 12) (ΔR-IN-vif construct) or 5'EGINT4 (SEQ ID NO 5) and 3'EGINT6 (SEQ ID NO 7) (ΔIN construct). In a second protocol the outer primers were identical as described above, the inner primers are 5'EGINT5 (SEQ ID NO 6) and 3'EGINT6 (SEQ ID NO 7). The amplicons can be used for genotyping and phenotyping. Cycling conditions for both PCRs are denaturation for 3 min at 95°C, followed by 30 cycles of 1 min 90°C, 30 sec 55°C, and 2 min 72°C. A final extension was performed at 72°C for 10 min. For recombination, PCR products are purified using the QiaQuick® 96 PCR BioRobot kit (Qiagen), according to the manufacturer's protocol. If the protocol starts from DNA containing the HIV material such as proviral DNA, the reverse transcriptase step is not needed. The nested approach is also not needed when starting from proviral DNA. The obtained amplicons were sequenced using the primers: In_seq1F (SEQ ID NO 17), In_seq2F (SEQ ID NO 18), In_seq3F (SEQ ID NO 19), IN_seq1R (SEQ ID NO 20), IN_seq2R (SEQ ID NO 21), and IN_seq3R (SEQ ID NO 22).\n(§2) A ΔR-IN-vif or ΔIN deletion construct was generated by site-directed mutagenesis on the template pSV40HXB2D with the primers MUT-IN1 (SEQ ID NO 13) and MUT-IN2 (ΔR-IN-vif construct) (SEQ ID NO 14) or MUT-IN3 (SEQ ID NO 15) and MUT-IN4 (SEQ ID NO 16) (ΔIN construct) (protocol Site-directed mutagenesis kit, Stratagene). After DpnI digestion for removal of the methylated template DNA, the construct was digested with SmaI and ligated to circulize the plasmid. The plasmid was transformed into competent cells such as Top10 cells, and colonies were screened for the presence of the deletion construct. The IN-deletion construct was checked by sequence analysis with primers 5'EGINT1 (SEQ ID NO 1) or […] and 3'EGINT10 (SEQ ID NO 11) or 3'EGINT11 (SEQ ID NO 12). For use in recombination experiments, large-scale plasmid DNA preparations were linearized by SmaI digestion and recombined with PCR amplified integrase genes from wild type, mutant, or patient viruses. The plasmid containing the integrase deletion (ΔIN) has been deposited pSV40HXB2D-ΔIN. The sequence of said plasmid is 14377 nucleotides long. The ΔR-IN-vif deletion construct is 13975 nucleotides long. The pSV40HXB2D-ΔIN was deposited at the Belgian Coordinated Collections of Micro-Organisms located at the Universiteit Gent - Laboratorium voor Moleculaire Biologie on August 5, 2002 and the accession number is LMBP 4574.\n(§3) Recombinant virus was produced by co-transfection by electroporation of the SmaI-linearized IN-deletion construct and the integrase amplicon into MT4 cells or MT4 cells equipped with an LTR driven reporter gene construct. Production of recombinant virus was evaluated by scoring the cytopathogenic effect (CPE) that is induced by HIV-infection of MT4 cells or by the LTR-driven reporter signal induced by HIV infection in MT4 reporter cells."}, "WT III B": {"system": "WT III B", "test": "microbe, parasite or virus in culture", "assay_type": "cell-based, HIV-1", "settings": "AVE 5, WT III B, primer set 4", "method": "as §1, §2, §3"}, "NL 4-3": {"system": "NL 4-3", "test": "microbe, parasite or virus in culture", "assay_type": "cell-based, HIV-1", "settings": "for fold change: fold change in EC50; for EC50: read-out: EC 50", "method": "as §1, §2, §3"}}, "note": "Where two headings read alike, the source gives them in different places."}
{"compound": "CC(C)CN(C[C@@H](O)[C@H](Cc1ccccc1)NC(=O)O[C@H]1CO[C@H]2OCC[C@H]21)S(=O)(=O)c1ccc(N)cc1", "note": "[Compound 3, [(11S,2R)-3-[[(4-aminophenyl)sulfonyl](2-methylpropyl)amino]-2-hydroxy-1-(phenylmethyl)-propyl]-, (3R,3aS,6aR)-hexahydrofuro[2,3-b]furan-3-yl ester carbamic acid]", "values": [{"measurement": "EC50", "setting": "pHXB2D control", "result": 7.1, "unit": "nM"}, {"measurement": "fold change", "setting": "pHXB2D control; fold change in EC50", "result": "1,0"}, {"measurement": "fold change", "setting": "patient_146514; fold change in EC50", "result": "2,2"}, {"measurement": "EC50", "setting": "patient_146514; read-out: EC 50", "result": 15.6, "unit": "nM"}, {"measurement": "fold change", "setting": "WT III B; fold change in EC50", "result": "0,9"}, {"measurement": "EC50", "setting": "WT III B; read-out: EC 50", "result": 6.3, "unit": "nM"}, {"measurement": "fold change", "setting": "NL 4-3; AVE 1, NL 4-3, primer set 3", "result": "0,5"}, {"measurement": "EC50", "setting": "NL 4-3; AVE 1, NL 4-3, primer set 3", "result": 3.7, "unit": "nM"}, {"measurement": "fold change", "setting": "NL 4-3; AVE 4, NL4-3, primer set 4", "result": "1,5"}, {"measurement": "EC50", "setting": "NL 4-3; AVE 4, NL4-3, primer set 4", "result": 10.9, "unit": "nM"}]}
